Measured values from patent US10556888B2, “Pyrazole compounds or salts thereof, preparation methods therefor, herbicidal compositions and use thereof” (QINGDAO KINGAGROOT CHEMICAL COMPOUNDS CO., LTD, priority 2015, dated 2020).

Columns and labels:
[1] = tested on: Monocotyledonous and dicotyledonous weed; assay: Post-emergence test experiment, weed control effect (Table 2); type: in vivo; set-up: key to weed control effect, Setaria viridis (level) / weed control effect, Rorippa indica (level) / weed control effect, Abutilon theophrasti (level) / weed control effect, Echinochloa crus-galli (level) / weed control effect, Digitaria sanguinalis (level): Level 10: completely dead; Level 9: above 90% growth inhibition rate; Level 8: above 80% growth inhibition rate; Level 7: above 70% growth inhibition rate; Level 6: above 60% growth inhibition rate; Level 5: above 50% growth inhibition rate; Level 4: above 30% growth inhibition rate; Level 3: above 20% growth inhibition rate; Level 2: above 10% growth inhibition rate; Level 1: above 1-10% growth inhibition rate; Level 0: no effect; settings: 3 weeks after spraying, greenhouse
In short: (§1)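 Compounds, dissolved in acetone, mixed with Tween 80 and diluted in water, were sprayed post-emergence onto greenhouse-grown weeds and crops at the 2-3 leaf stage (2-3 weeks post-sowing). Plants then grown 3 more weeks in the greenhouse before evaluation.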

[2] = tested on: main crop (wheat, corn, rice, soybean, cotton, oilseed, millet and sorghum); assay: Post-emergence test experiment, main crops (Table 2); type: in vivo; set-up: key: Level 10: completely dead; Level 9: above 90% growth inhibition rate; Level 8: above 80% growth inhibition rate; Level 7: above 70% growth inhibition rate; Level 6: above 60% growth inhibition rate; Level 5: above 50% growth inhibition rate; Level 4: above 30% growth inhibition rate; Level 3: above 20% growth inhibition rate; Level 2: above 10% growth inhibition rate; Level 1: above 1-10% growth inhibition rate; Level 0: no effect; settings: 3 weeks after spraying, greenhouse
In short: as §1

| SMILES | weed control effect, Abutilon theophrasti (level) ([1]; 30 g/ha) | weed control effect, Bidens pilosa (level) ([1]; 30 g/ha) | weed control effect, Digitaria sanguinalis (level) ([1]; 30 g/ha) | weed control effect, Echinochloa crus-galli (level) ([1]; 30 g/ha) | weed control effect, Rorippa indica (level) ([1]; 30 g/ha) | weed control effect, Setaria viridis (level) ([1]; 30 g/ha) | effect on crop, corn (level) ([2]; 30 g/ha) | effect on crop, rice (level) ([2]; 30 g/ha) | effect on crop, wheat (level) ([2]; 30 g/ha) | weed control effect, Abutilon theophrasti (level) ([1]; 120 g/ha) | weed control effect, Bidens pilosa (level) ([1]; 120 g/ha) | weed control effect, Digitaria sanguinalis (level) ([1]; 120 g/ha) | weed control effect, Echinochloa crus-galli (level) ([1]; 120 g/ha) | weed control effect, Rorippa indica (level) ([1]; 120 g/ha) | weed control effect, Setaria viridis (level) ([1]; 120 g/ha) | effect on crop, corn (level) ([2]; 120 g/ha) | effect on crop, rice (level) ([2]; 120 g/ha) | effect on crop, wheat (level) ([2]; 120 g/ha) |
| --- | --- | --- | --- | --- | --- | --- | --- | --- | --- | --- | --- | --- | --- | --- | --- | --- | --- | --- |
| CCOCCOCc1c(S(C)(=O)=O)ccc(C(=O)c2c(C3CC3)nn(C)c2OC(=O)c2cnn(C)c2)c1Cl [Compound 74] | 7 (Level 7: above 70% growth inhibition rate) | 5 (Level 5: above 50% growth inhibition rate) | 6 (Level 6: above 60% growth inhibition rate) | 10 | 10 | 6 (Level 6: above 60% growth inhibition rate) | 0 | 3 (Level 3: above 20% growth inhibition rate) | 0 | – | – | – | – | – | – | – | – | – |
| CCCCOCc1c(S(C)(=O)=O)ccc(C(=O)c2c(C3CC3)nn(C)c2OC(=O)c2cnn(C)c2)c1Cl [Compound 75] | 5 (Level 5: above 50% growth inhibition rate) | 6 (Level 6: above 60% growth inhibition rate) | 9 (Level 9: above 90% growth inhibition rate) | 10 | 10 | 7 (Level 7: above 70% growth inhibition rate) | 0 | 3 (Level 3: above 20% growth inhibition rate) | 0 | – | – | – | – | – | – | – | – | – |
| Cc1nn(C)cc1C(=O)Oc1c(C(=O)c2ccc(S(C)(=O)=O)c(Cn3cccn3)c2C)cnn1C [Compound 77] | 7 (Level 7: above 70% growth inhibition rate) | 7 (Level 7: above 70% growth inhibition rate) | 7 (Level 7: above 70% growth inhibition rate) | 10 | 10 | 10 | 1 (Level 1: above 1-10% growth inhibition rate) | 3 (Level 3: above 20% growth inhibition rate) | 0 | – | – | – | – | – | – | – | – | – |
| Cc1c(C(=O)c2c(C3CC3)nn(C)c2OC(=O)c2cnn(C)c2)ccc(S(C)(=O)=O)c1COCC(F)(F)F [Compound 78] | 7 (Level 7: above 70% growth inhibition rate) | 7 (Level 7: above 70% growth inhibition rate) | 7 (Level 7: above 70% growth inhibition rate) | 10 | 10 | 10 | 1 (Level 1: above 1-10% growth inhibition rate) | 3 (Level 3: above 20% growth inhibition rate) | 0 | – | – | – | – | – | – | – | – | – |
| Cc1cc(C)n(Cc2c(S(C)(=O)=O)ccc(C(=O)c3c(C)nn(C)c3OC(=O)c3cnn(C)c3)c2C)n1 [Compound 79] | – | – | – | – | – | – | – | – | – | 6 (Level 6: above 60% growth inhibition rate) | 6 (Level 6: above 60% growth inhibition rate) | 1 (Level 1: above 1-10% growth inhibition rate) | 10 | 4 (Level 4: above 30% growth inhibition rate) | 3 (Level 3: above 20% growth inhibition rate) | 0 | 0 | 0 |
| CCOCc1c(S(C)(=O)=O)ccc(C(=O)c2cnn(C)c2OC(=O)c2cnn(C)c2OCC)c1C [Compound 80] | 6 (Level 6: above 60% growth inhibition rate) | 7 (Level 7: above 70% growth inhibition rate) | 7 (Level 7: above 70% growth inhibition rate) | 10 | 10 | 6 (Level 6: above 60% growth inhibition rate) | 0 | 3 (Level 3: above 20% growth inhibition rate) | 0 | – | – | – | – | – | – | – | – | – |
| CCOc1c(C(=O)Oc2c(C(=O)c3ccc(S(C)(=O)=O)c(Cn4cc(C)cn4)c3C)c(C3CC3)nn2C)cnn1C [Compound 81] | – | – | – | – | – | – | – | – | – | 6 (Level 6: above 60% growth inhibition rate) | 6 (Level 6: above 60% growth inhibition rate) | 1 (Level 1: above 1-10% growth inhibition rate) | 10 | 4 (Level 4: above 30% growth inhibition rate) | 3 (Level 3: above 20% growth inhibition rate) | 0 | 0 | 0 |
| CCOc1c(C(=O)Oc2c(C(=O)c3ccc(S(C)(=O)=O)c(Cn4cc(Cl)cn4)c3C)c(C)nn2CC)cnn1C [Compound 82] | – | – | – | – | – | – | – | – | – | 6 (Level 6: above 60% growth inhibition rate) | 6 (Level 6: above 60% growth inhibition rate) | 1 (Level 1: above 1-10% growth inhibition rate) | 10 | 4 (Level 4: above 30% growth inhibition rate) | 3 (Level 3: above 20% growth inhibition rate) | 0 | 0 | 0 |
| CCn1nc(C2CC2)c(C(=O)c2ccc(S(C)(=O)=O)c(Cn3cc(Cl)cn3)c2C)c1OC(=O)c1cn(C)nc1C [Compound 84] | – | – | – | – | – | – | – | – | – | 6 (Level 6: above 60% growth inhibition rate) | 6 (Level 6: above 60% growth inhibition rate) | 1 (Level 1: above 1-10% growth inhibition rate) | 10 | 4 (Level 4: above 30% growth inhibition rate) | 3 (Level 3: above 20% growth inhibition rate) | 0 | 0 | 0 |
| CCn1nc(C)c(C(=O)c2ccc(S(C)(=O)=O)c(COCC(F)(F)C(F)F)c2C)c1OC(=O)c1cnn(C)c1 [Compound 85] | 6 (Level 6: above 60% growth inhibition rate) | 7 (Level 7: above 70% growth inhibition rate) | 8 (Level 8: above 80% growth inhibition rate) | 9 (Level 9: above 90% growth inhibition rate) | 10 | 8 (Level 8: above 80% growth inhibition rate) | 0 | 3 (Level 3: above 20% growth inhibition rate) | 0 | – | – | – | – | – | – | – | – | – |
| CCOCCOCc1c(S(C)(=O)=O)ccc(C(=O)c2c(C3CC3)nn(CC)c2OC(=O)c2cnn(C)c2OCC)c1C [Compound 86] | 6 (Level 6: above 60% growth inhibition rate) | 7 (Level 7: above 70% growth inhibition rate) | 8 (Level 8: above 80% growth inhibition rate) | 8 (Level 8: above 80% growth inhibition rate) | 10 | 8 (Level 8: above 80% growth inhibition rate) | 0 | 3 (Level 3: above 20% growth inhibition rate) | 0 | – | – | – | – | – | – | – | – | – |
| CCn1ncc(C(=O)c2ccc(S(C)(=O)=O)c(Cn3cc(C)cn3)c2C)c1OC(=O)c1cnn(C)c1 [Compound 87] | – | – | – | – | – | – | – | – | – | 6 (Level 6: above 60% growth inhibition rate) | 6 (Level 6: above 60% growth inhibition rate) | 1 (Level 1: above 1-10% growth inhibition rate) | 10 | 4 (Level 4: above 30% growth inhibition rate) | 3 (Level 3: above 20% growth inhibition rate) | 0 | 0 | 0 |
| CC=CCOCc1c(S(C)(=O)=O)ccc(C(=O)c2cnn(CC)c2OC(=O)c2cnn(C)c2)c1Cl [Compound 88] | 6 (Level 6: above 60% growth inhibition rate) | 7 (Level 7: above 70% growth inhibition rate) | 8 (Level 8: above 80% growth inhibition rate) | 7 (Level 7: above 70% growth inhibition rate) | 10 | 8 (Level 8: above 80% growth inhibition rate) | 0 | 3 (Level 3: above 20% growth inhibition rate) | 0 | – | – | – | – | – | – | – | – | – |
